This passage reports IC50 results from patent US9868726B2, “Pyridyl benzothiophenes as kinase inhibitors” (Allergan, Inc., priority 2014, dated 2018).

The target of experiment [1] is VEGFR2 (cytoplasmic domain KDR protein) (Homo sapiens (Human), UniProt P35968). Briefly: VEGFR2 Kinase Assay (biochemical KDR kinase assay, ELISA). The settings on record: read-out: VEGFR2 Enzyme Assay (IC50 nM); 2.7 μM ATP. (In general: ELISA stands for enzyme-linked immunosorbent assay.)
The target in experiment [2] is PDGFRβ (cytoplasmic domain PDGFR-b protein) (Homo sapiens (Human), UniProt P09619). Briefly: PDGFRβ Kinase Assay (biochemical, ELISA). The settings on record: 36 μM ATP; read-out: PDGFRβ Enzyme Assay (IC50 nM).
Sequence of PDGFRβ (cytoplasmic domain PDGFR-b protein) (P09619 554-1106): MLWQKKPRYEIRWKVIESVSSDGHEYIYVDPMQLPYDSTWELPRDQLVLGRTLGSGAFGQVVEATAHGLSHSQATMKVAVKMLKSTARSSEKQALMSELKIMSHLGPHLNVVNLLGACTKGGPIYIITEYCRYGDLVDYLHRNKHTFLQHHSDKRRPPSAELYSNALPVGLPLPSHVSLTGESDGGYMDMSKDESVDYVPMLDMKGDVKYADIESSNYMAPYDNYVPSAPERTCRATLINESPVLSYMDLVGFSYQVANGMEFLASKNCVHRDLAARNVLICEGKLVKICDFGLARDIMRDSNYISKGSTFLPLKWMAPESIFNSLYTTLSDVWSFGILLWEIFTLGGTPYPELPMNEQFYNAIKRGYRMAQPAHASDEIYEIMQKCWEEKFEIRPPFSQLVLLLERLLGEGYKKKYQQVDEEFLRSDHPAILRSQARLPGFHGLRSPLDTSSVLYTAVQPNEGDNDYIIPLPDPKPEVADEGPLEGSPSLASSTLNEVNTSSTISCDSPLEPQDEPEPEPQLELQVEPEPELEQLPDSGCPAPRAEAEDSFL
A further experiment has as its target VEGFR2 (Homo sapiens (Human), UniProt P35968). Briefly: VEGFR2 Cellular Assay (FLIPR, VEGF induced intracellular calcium in HUVEC). (In general: Calcium assays in cells follow changes in intracellular calcium, usually with a dye or a luminescent sensor.)
In experiment [3] the target is recombinant human GST-PKR (Homo sapiens (Human), UniProt P19525). The experiment in a line: PKR KinaseGlo Assay. The format is biochemical. The conditions noted are these: 6.6 uM ATP; read-out: PKR KINASEGLO Enzyme Assay IC50. The protocol: Commercially available recombinant human GST-PKR (SignalChem, Canada; 1.5 uM-2 uM stock) is diluted to 500 nM in assay buffer (20 mM Tris-HCl, pH 7.2, 10 mM KCl, 10 mM MgCl2, 10% glycerol). Preactivated PKR is dispensed to 384/96-well black plates at 3.125/12.5 uls/well using the liquid handler Janus. Appropriate dilutions of inhibitors are added to 384/96-well plate followed by 6.6 uM ATP (final) and incubated for 10 minutes at room temperature. The remaining ATP/well is determined by adding 6.25/25 uls/well Kinase-Glo assay mix (Promega) and luminescence is measured on EnVision luminescence plate reader (integration time, 0.2 sec; Perkin-Elmer, Massachusetts, USA). […] IC50 values are determined by plotting % activity versus inhibitor concentration. Curves are fitted using Activity base XLfit (IDBS, UK) using the formula— 4 Parameter Logistic Model fit=(A+((B−A)/(1+(10^((C−x)*D))))) inv=(C−(log(((B−A)/(y−A))−1)/D)) res=(y−fit)
Sequence of recombinant human GST-PKR (P19525 whole entry): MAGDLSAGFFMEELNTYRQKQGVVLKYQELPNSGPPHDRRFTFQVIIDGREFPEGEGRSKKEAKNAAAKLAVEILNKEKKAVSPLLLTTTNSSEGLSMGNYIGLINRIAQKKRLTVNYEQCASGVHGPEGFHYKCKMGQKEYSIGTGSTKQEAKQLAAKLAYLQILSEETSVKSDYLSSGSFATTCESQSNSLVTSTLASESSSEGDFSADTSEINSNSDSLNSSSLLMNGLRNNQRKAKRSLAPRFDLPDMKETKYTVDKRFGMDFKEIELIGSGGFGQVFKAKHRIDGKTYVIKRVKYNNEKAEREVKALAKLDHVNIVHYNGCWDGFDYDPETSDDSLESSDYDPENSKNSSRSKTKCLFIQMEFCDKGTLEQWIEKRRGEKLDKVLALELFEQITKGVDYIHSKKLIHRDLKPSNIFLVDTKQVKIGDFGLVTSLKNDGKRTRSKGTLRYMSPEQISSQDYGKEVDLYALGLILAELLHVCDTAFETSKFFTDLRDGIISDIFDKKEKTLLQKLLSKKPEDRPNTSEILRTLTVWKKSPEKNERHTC
Background: In Kinase-Glo more light means more ATP remaining.

The target in the next experiment is PDGFRβ (Homo sapiens (Human), UniProt P09619). Briefly: PDGFRβ Cellular Assay (FLIPR, PDGF-induced intracellular calcium in NHDF-Ad).
Sequence of PDGFRβ (P09619 33-1106): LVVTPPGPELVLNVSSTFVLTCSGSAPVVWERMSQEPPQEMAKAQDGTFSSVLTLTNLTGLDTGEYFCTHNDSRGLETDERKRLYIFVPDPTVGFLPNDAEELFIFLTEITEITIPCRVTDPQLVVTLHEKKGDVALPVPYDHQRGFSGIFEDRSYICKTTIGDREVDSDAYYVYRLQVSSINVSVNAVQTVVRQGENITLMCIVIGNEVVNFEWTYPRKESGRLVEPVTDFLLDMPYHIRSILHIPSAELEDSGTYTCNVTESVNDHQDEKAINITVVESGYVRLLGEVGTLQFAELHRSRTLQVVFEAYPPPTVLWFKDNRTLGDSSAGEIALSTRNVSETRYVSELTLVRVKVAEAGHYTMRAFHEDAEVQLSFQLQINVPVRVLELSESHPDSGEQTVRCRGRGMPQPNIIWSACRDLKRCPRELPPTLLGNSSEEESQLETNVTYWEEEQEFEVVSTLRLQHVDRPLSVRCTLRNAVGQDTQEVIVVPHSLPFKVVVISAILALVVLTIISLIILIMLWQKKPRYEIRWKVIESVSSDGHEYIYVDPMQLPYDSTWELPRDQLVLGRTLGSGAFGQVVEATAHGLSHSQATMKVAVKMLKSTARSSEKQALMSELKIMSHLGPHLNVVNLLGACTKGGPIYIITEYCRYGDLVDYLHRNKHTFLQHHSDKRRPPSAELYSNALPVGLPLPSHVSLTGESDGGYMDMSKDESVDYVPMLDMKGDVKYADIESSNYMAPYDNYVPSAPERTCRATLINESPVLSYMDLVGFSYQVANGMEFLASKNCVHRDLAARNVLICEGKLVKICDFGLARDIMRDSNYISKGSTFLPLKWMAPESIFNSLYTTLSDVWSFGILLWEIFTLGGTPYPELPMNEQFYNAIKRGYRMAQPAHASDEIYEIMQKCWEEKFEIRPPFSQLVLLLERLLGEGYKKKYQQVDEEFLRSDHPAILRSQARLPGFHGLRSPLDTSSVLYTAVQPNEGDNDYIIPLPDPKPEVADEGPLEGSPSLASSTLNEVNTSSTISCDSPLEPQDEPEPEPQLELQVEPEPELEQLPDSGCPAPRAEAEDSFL

Sequence of VEGFR2 (cytoplasmic domain KDR protein) (P35968 786-1356): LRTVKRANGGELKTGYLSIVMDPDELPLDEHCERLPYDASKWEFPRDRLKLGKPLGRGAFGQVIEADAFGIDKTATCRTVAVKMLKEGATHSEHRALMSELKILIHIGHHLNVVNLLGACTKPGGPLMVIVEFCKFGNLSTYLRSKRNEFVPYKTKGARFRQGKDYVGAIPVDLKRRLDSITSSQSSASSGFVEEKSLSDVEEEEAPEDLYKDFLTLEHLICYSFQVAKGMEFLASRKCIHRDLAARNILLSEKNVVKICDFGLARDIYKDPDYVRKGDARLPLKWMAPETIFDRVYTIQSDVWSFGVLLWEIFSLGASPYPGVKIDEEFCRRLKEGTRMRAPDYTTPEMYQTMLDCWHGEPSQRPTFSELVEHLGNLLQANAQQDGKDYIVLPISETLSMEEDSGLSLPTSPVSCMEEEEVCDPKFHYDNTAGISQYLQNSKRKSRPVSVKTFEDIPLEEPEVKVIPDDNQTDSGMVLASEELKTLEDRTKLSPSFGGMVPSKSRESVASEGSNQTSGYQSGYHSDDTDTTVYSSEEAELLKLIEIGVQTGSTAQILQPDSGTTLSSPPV
Sequence of VEGFR2 (P35968 20-1356): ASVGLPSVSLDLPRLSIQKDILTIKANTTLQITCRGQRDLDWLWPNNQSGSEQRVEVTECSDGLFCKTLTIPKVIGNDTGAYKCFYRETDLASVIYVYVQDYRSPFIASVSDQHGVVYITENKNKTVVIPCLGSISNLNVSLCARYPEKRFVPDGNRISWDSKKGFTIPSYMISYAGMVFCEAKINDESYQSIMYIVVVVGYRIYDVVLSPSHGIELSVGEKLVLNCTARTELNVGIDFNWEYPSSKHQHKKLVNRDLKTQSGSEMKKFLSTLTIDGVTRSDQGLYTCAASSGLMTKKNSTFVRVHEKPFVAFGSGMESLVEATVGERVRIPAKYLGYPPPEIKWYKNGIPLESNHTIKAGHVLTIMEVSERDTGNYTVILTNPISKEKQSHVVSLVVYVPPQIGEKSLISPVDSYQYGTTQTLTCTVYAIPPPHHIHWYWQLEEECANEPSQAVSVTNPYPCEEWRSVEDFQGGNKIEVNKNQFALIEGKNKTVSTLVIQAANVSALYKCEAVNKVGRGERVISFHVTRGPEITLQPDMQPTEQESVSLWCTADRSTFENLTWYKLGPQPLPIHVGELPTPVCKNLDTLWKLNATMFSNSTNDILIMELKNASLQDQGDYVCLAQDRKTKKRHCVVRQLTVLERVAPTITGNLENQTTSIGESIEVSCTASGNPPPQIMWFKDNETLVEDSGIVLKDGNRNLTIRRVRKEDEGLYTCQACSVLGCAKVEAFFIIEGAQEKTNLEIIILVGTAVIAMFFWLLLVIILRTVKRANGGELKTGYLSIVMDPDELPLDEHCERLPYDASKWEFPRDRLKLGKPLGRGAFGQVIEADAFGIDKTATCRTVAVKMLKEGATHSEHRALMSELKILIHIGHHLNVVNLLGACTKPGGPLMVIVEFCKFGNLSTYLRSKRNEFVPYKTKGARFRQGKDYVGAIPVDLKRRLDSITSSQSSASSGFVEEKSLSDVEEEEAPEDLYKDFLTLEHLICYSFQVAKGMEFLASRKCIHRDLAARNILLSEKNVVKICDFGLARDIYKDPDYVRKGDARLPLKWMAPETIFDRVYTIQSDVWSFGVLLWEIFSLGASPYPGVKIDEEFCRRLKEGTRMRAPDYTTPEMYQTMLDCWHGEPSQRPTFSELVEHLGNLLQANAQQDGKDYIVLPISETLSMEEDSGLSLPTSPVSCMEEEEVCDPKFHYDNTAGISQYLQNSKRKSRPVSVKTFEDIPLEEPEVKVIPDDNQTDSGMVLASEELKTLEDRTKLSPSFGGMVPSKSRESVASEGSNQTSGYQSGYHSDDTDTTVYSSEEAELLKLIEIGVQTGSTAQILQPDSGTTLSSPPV

As a reminder, the IC50 is the midpoint of a concentration-inhibition curve. As to `CS(C)(=O)=NC(=O)c1cnc(N)c(-c2cc3cc(NC(=O)Nc4ccc(Cl)c(C(F)(F)F)c4)ccc3s2)c1` [Example 5, 6-amino-5-{5-[({[4-chloro-3-(trifluoromethyl)phenyl]amino}carbonyl)amino]-1-benzothien-2-yl}-N-[dimethyl(oxido)-λ^4-sulfanylidene]nicotinamide], the IC50 in experiment [1] came out at 6 nM; in experiment [2] it was 21 nM; at VEGFR2, 11 nM; in experiment [3], 69 nM.
`CS(C)(=O)=NC(=O)c1cnc(N)c(-c2cc3cc(NC(=O)Nc4cc(C(F)(F)F)ccc4F)ccc3s2)c1` [Example 6, 6-amino-N-[dimethyl(oxido)-λ^4-sulfanylidene]-5-{5-[({[2-fluoro-5-(trifluoromethyl)phenyl]amino}carbonyl)amino]-1-benzothien-2-yl}nicotinamide]: the IC50 in experiment [1] came to 6 nM; in experiment [2], 27 nM; at VEGFR2 it was 5 nM; in experiment [3], 167 nM.
Regarding `CS(C)(=O)=NC(=O)c1cncc(-c2cc3cc(NC(=O)Nc4cc(C(F)(F)F)ccc4F)ccc3s2)c1` [Example 57, N-[dimethyl(oxido)-λ^4-sulfanylidene]-5-{5-[({[2-fluoro-5-(trifluoromethyl)phenyl]amino}carbonyl)amino]-1-benzothien-2-yl}nicotinamide], the IC50 was found to be 7 nM in experiment [1] and 551 nM in experiment [3].
For `CS(C)(=O)=NC(=O)c1cncc(-c2cc3cc(NC(=O)Nc4ccc(Cl)c(C(F)(F)F)c4)ccc3s2)c1` [Example 58, 5-{5-[({[4-chloro-3-(trifluoromethyl)phenyl]amino}carbonyl)amino]-1-benzothien-2-yl}-N-[dimethyl(oxido)-Δ^4-sulfanylidene]nicotinamide], the concentration for half-maximal inhibition (IC50) was found to be 14 nM in experiment [1] and 390 nM in experiment [3].
As for `COP(=O)(OC)c1cnc(N)c(-c2ccc(NC(=O)Nc3cccc(C(F)(F)F)c3)cc2)c1` [Example 64, dimethyl (6-amino-5-(4-(3-(3-(trifluoromethyl)phenyl)ureido)phenyl)pyridin-3-yl)phosphonate], the IC50 on PDGFRβ worked out at 66 nM.
